# Data as given in US8957060B2, “Tumescent antibiotic solution” (priority 2004, dated 2015).
# Like-named read-outs stand apart in the source and are kept apart here.
# Columns and labels:
# [1] = test system: Staphyloccus aureus (MRSA) ATCC 33592; assay: Minimum Bactericidal Concentration (MBC); assay type: cell-based; settings: Staphylococcus aureus, read-out: MBC end point
# From the text: Determinations of MBC followed the method described in “Report on the Working Party on Antibiotic Sensitivity Testing of the British Society of Antimicrobial Chemotherapy: A Guide to Sensitivity Testing.”
# [2] = test system: Staphyloccus aureus (MRSA) ATCC 33592; assay: Minimum Inhibitory Concentration (MIC), dilution method; settings: Staphylococcus aureus, 48 h, read-out: MIC end point
# Method: Following inoculation, survival of test microorganisms was determined. This method of determining MIC was based on the method described in the NCCLS document M7: Methods for Dilution Antimicrobial Susceptibility Tests for Bacteria that Grow Aerobically; Approved Standard—Seventh Edition.
# [3] = test system: platelet aggregation induced by ADP, epinephrine and collagen; settings: cited from earlier work
# [4] = cited from earlier work
# [5] = cited from earlier work; remark: listed apart in the source
# [6] = Pharmacokinetics of TAD vs IVAD (cefazolin, metronidazole): AUC and Cmax in TISF and serum
# Method: A clinical pharmacologic investigation was conducted to compare the pharmacokinetic advantages of two modes of systemic antibiotic delivery, Tumescent antibiotic delivery (TAD), which involves the delivery of a relatively large volume of an antibiotic-containing solution to the subcutaneous compartment, and intravenous antibiotic delivery (IVAD), which results in direct delivery of antibiotics to the blood stream, for prophylaxis of SSI. […] Methods
# With Institutional Review Board (IRB) approval, the absorption pharmacokinetics of tumescent antibiotic delivery (TAD) and intravenous antibiotic delivery (IVAD) were tested in human subjects and the antibiotic delivery modes were evaluated with respect to the area under the curve (AUC) of antibiotic concentration as a function of time and peak antibiotic concentration (Cmax) in serum and TISF. 4 female subjects participated in at least one study, one subject volunteered for 2 separate studies. 5 studies were conducted: 3 involved TAD to the abdomen, 1 involved TAD to the hips and outer thighs and 1 involved TAD to the breasts. […] Each of the 5 studies consisted of 2 to 3 pharmacokinetic procedures, for a total of 14 procedures. Any procedures conducted on an individual subject were separated by at least one week. In 13 procedures only IVAD or TAD, was used. In one procedure both IVAD and TAD were used concurrently, with IVAD started and finished within five minutes after completing TAD.
# TAD was conducted as described herein. Following TAD, sequential 10 ml samples of tumescent adipose tissue were obtained using a hand-held syringe-liposuction technique. Sampling began immediately after completing the TAD infiltration (T0), and continuing until the patients reported significant discomfort. Liposuction aspirate samples were obtained at 0, 1, 2, 3, 4, 6, and 8 hours in all procedures; in 4 TAD procedures, sampling continued until 10 hours. Sequential serum samples for measurement of antibiotic concentration in serum after TAD ([Serum]TAD) were obtained simultaneously.
# For IVAD, the antibiotic was delivered into an antecubital vein. […]
smiles,measurement,setting,value
Cc1nnc(SCC2=C(C(=O)O)N3C(=O)[C@@H](NC(=O)Cn4cnnn4)[C@H]3SC2)s1 [Cefazolin],MBC,"[1]; 24 h, Day 1",250 µg/mL
same,MBC,"[1]; 48 h, Day 2",250 µg/mL
same,MIC,[2],250 µg/mL
CCN(CC)CC(=O)Nc1c(C)cccc1C [Lidocaine],concentration that consistently inhibits in-vitro platelet aggregation,"[3]; aggregation induced by ADP, epinephrine and collagen",≥ 0.5 mg/mL
same,safe systemic concentration with no effect on platelet aggregation,[3],≤ 6 micrograms/ml
same,dosage limitation approved by the FDA,"[4]; infiltration local anesthesia, commercial lidocaine (1%) with epinephrine (1:100,000)",7 mg/kg
same,maximum safe mg/kg dosage (estimated),"[4]; tumescent lidocaine, TLA without liposuction, adults",30 mg/kg
same,duration of local anesthesia,[5]; 1% or 2% commercial concentrations of lidocaine with epinephrine,2 to 3 h
same,persistence of profound surgical local anesthesia,[5]; tumescent local anesthesia (TLA),6 to 8 h
Cc1ncc([N+](=O)[O-])n1CCO [Metronidazole],AUC[Serum]IVAD,"[6]; Study 5, 600 mg metronidazole IVAD",127
same,period in which serum concentration of metronidazole exceeds 4 μg/ml,"[6]; female, human, in vivo",0 to 12 h
CO[C@@]1(NC(=O)Cc2cccs2)C(=O)N2C(C(=O)O)=C(COC(N)=O)CS[C@@H]21 [cefoxitin],times greater antibiotic exposure in ISF by TAD than by IVAD (150×AUC[ISF]IVAD<AUC[TISF]TAD),"[6]; human, in vivo",150
